Source: the kinase profiling compilation of Christmann-Franck et al. (2016)

Key:
Assay in all cases: radiometric filter-binding kinase assay
[1] = target: PAK7 (human) (UniProt Q9P286)
[2] = target: ERBB4 (human) (UniProt Q15303); settings: compound 10.0 µM
[3] = target: HIPK2 (human) (UniProt Q9H2X6)
[4] = target: MAPK1 (human) (UniProt P28482)
[5] = target: IKBKE (human) (UniProt Q14164)
[6] = target: BRSK2 (human) (UniProt Q8IWQ3)
[7] = target: RPS6KA1 KD1 KD2 (human) (UniProt Q15418)
[8] = target: EPHB3 (human) (UniProt P54753)
[9] = target: DYRK1A (human) (UniProt Q13627)
[10] = target: CaMK1 (human) (UniProt Q14012)
[11] = tested on: AKT1 (human), P31749 [S473D]
[12] = target: PLK1 (human) (UniProt P53350)
[13] = target: MAPK13 (human) (UniProt O15264)
[14] = target: DYRK2 (human) (UniProt Q92630)
[15] = target: PRKCA (human) (UniProt P17252)
[16] = target: PAK4 (human) (UniProt O96013); settings: compound 10.0 µM
[17] = target: MAP2K6 (human) (UniProt P52564)
[18] = target: MAPK12 (human) (UniProt P53778)
[19] = tested on: SGK1 (human), O00141 [S422D]
[20] = target: MAPK10 (human) (UniProt P53779); settings: compound 10.0 µM
[21] = target: AURKA (human) (UniProt O14965)
[22] = target: MAP3K11 (human) (UniProt Q16584)
[23] = target: SYK (human) (UniProt P43405); settings: compound 1.0 µM
[24] = target: CHEK2 (human) (UniProt O96017)
[25] = target: PRKACA (human) (UniProt P17612)
[26] = target: MAPKAPK3 (human) (UniProt Q16644)
[27] = target: MKNK1 (human) (UniProt Q9BUB5)
[28] = target: MAPK3 (human) (UniProt P27361)
[29] = target: NEK2 (human) (UniProt P51955)
[30] = target: MAPK8 (human) (UniProt P45983)
[31] = target: EPHB2 (human) (UniProt P29323)
[32] = target: MST4 (human) (UniProt Q9P289)
[33] = target: MARK2 (human) (UniProt Q7KZI7)
[34] = target: NUAK1 (human) (UniProt O60285)
[35] = tested on: PRKAA1 or PRKAA2 (rat); settings: accession and sequence are those of the human protein

Chain of CHEK2 (human) (O96017 whole entry, looked up): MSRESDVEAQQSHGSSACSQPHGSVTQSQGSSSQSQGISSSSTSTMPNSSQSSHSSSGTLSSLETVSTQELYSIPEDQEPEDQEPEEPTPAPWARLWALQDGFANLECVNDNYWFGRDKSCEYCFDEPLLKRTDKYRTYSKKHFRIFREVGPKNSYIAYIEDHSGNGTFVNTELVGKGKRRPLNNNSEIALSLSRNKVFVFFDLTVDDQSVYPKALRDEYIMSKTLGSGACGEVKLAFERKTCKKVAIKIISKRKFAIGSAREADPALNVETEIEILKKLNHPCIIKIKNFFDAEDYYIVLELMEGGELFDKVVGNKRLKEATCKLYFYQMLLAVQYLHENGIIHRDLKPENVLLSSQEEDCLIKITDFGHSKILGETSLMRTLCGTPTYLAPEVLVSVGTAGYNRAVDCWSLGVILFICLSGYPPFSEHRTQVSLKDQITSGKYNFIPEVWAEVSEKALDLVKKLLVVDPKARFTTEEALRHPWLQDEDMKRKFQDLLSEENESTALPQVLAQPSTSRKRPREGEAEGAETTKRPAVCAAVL
Chain of PLK1 (human) (P53350 whole entry, looked up): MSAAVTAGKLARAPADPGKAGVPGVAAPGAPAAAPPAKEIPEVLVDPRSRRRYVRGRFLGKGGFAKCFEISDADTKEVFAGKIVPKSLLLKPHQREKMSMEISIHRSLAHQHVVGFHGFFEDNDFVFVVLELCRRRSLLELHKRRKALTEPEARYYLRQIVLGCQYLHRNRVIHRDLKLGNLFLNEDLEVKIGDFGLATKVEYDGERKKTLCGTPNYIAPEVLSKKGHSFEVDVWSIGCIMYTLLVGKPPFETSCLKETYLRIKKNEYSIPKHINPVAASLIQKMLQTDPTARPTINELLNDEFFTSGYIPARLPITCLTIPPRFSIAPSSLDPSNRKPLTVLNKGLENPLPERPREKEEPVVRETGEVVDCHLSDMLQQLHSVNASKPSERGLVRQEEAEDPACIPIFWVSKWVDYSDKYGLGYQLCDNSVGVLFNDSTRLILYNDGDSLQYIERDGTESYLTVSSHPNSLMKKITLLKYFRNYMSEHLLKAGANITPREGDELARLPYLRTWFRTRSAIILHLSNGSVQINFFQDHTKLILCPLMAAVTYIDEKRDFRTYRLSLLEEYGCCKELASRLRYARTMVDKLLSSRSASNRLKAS
Chain of MAPK13 (human) (O15264 whole entry, looked up): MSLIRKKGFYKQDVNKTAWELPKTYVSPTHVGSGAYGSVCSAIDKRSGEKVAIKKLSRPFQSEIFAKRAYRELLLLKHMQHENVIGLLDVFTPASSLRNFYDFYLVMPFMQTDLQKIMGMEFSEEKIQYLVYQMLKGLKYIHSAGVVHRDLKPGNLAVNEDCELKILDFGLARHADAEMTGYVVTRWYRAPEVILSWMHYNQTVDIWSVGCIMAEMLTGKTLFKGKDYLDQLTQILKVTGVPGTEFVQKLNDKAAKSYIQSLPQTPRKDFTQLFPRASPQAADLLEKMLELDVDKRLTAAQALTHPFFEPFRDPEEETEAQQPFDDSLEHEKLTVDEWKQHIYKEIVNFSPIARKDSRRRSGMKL
Chain of MAPK12 (human) (P53778 whole entry, looked up): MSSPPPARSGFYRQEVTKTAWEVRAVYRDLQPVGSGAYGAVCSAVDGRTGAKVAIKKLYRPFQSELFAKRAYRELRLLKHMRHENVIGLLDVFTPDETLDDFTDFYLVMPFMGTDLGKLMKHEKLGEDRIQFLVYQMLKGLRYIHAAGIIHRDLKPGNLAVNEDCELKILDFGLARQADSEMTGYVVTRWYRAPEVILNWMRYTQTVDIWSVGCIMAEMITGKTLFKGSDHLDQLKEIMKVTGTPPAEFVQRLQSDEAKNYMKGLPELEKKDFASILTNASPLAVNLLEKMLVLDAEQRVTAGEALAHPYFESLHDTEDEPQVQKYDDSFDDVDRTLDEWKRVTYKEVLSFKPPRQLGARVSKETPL
Chain of EPHB2 (human) (P29323 whole entry, looked up): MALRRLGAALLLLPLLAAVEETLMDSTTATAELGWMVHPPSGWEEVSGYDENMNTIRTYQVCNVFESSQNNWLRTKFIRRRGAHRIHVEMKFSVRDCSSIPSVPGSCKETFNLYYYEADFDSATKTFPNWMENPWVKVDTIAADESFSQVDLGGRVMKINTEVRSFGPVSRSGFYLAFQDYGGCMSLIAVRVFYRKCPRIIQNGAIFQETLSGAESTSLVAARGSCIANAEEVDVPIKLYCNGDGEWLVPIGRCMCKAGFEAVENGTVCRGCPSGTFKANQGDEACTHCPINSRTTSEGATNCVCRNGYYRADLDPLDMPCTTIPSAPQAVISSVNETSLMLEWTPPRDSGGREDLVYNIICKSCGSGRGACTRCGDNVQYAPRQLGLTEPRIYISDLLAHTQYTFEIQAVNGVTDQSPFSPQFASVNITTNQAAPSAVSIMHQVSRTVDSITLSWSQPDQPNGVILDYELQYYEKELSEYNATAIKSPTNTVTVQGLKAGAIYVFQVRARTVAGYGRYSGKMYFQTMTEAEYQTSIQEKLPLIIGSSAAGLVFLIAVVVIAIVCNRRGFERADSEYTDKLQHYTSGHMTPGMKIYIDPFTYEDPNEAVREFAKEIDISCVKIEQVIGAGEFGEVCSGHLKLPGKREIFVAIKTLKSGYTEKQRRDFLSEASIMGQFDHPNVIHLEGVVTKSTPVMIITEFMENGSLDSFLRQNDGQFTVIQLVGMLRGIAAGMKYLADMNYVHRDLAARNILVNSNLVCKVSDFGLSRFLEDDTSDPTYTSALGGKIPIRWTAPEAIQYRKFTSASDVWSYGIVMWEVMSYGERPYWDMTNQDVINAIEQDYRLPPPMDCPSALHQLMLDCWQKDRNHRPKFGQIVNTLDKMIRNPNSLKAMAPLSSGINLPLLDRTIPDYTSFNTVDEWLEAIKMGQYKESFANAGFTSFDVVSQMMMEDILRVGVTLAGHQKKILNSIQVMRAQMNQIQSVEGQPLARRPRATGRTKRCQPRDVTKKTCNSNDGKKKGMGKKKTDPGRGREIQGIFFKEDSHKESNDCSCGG
Chain of MST4 (human) (Q9P289 whole entry, looked up): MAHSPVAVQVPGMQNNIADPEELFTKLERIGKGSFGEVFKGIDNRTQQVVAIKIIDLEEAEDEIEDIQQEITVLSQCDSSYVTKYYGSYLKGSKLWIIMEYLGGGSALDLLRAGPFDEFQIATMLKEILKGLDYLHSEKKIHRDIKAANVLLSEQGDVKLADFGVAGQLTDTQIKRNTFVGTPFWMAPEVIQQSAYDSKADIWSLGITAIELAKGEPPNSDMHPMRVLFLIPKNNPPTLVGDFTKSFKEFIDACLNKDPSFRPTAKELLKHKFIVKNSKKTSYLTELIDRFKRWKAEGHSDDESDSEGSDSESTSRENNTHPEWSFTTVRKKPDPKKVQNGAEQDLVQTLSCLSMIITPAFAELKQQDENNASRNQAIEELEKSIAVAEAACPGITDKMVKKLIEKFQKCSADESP
Chain of SGK1 (human), O00141 [S422D] (O00141 whole entry S422D, looked up): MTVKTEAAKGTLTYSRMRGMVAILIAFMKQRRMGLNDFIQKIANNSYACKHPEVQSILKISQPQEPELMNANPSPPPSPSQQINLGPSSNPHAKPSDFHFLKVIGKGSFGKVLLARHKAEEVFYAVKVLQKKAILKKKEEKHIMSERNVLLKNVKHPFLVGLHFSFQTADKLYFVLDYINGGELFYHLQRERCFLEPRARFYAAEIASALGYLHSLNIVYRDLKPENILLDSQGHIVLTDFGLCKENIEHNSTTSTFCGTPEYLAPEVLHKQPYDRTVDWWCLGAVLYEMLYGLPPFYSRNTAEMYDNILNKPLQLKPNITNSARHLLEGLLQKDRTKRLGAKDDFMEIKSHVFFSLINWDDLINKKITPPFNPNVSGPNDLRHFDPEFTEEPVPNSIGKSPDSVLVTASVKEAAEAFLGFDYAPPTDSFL
Chain of MAPKAPK3 (human) (Q16644 whole entry, looked up): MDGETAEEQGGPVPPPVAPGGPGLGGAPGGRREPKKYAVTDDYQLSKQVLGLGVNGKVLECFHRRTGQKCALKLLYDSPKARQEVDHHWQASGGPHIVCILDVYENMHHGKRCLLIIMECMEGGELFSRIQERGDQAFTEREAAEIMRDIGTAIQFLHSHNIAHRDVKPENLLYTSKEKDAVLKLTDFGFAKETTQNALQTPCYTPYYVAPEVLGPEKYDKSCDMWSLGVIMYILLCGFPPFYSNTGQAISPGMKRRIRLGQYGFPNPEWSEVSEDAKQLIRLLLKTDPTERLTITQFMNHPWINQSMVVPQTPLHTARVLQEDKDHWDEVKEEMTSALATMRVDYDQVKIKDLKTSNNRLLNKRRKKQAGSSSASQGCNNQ
Chain of CaMK1 (human) (Q14012 whole entry, looked up): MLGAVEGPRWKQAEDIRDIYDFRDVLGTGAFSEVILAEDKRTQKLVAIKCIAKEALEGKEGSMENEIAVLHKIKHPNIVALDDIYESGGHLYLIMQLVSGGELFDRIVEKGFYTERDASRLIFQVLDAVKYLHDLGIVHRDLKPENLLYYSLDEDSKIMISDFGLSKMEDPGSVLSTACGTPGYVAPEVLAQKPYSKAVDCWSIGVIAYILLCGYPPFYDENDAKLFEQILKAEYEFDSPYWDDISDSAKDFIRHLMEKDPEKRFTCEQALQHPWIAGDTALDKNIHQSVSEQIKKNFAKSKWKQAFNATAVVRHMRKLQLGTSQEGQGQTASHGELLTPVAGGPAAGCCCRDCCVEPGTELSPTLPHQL
Chain of MAP2K6 (human) (P52564 whole entry, looked up): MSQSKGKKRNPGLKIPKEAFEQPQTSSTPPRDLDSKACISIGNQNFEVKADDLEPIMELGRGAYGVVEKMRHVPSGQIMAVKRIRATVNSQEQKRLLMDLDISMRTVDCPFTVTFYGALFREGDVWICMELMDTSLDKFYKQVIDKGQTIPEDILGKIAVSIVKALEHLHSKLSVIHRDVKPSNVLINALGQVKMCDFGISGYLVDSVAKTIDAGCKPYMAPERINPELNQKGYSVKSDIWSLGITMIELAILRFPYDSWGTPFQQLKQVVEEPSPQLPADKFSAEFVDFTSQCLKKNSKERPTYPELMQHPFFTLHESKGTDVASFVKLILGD

Q: What does the source list for `O=C(NOC[C@H](O)CO)c1ccc(F)c(F)c1Nc1ccc(I)cc1Cl`?
A: residual activity ([1]; compound 1.0 µM): 104%; residual activity ([1]; compound 10.0 µM): 85%; residual activity [2]: 87%; residual activity ([3]; compound 1.0 µM): 93%; residual activity ([3]; compound 10.0 µM): 104%; residual activity ([4]; compound 1.0 µM): 90%; residual activity ([4]; compound 10.0 µM): 100%; residual activity ([5]; compound 1.0 µM): 103%; residual activity ([5]; compound 10.0 µM): 111%; residual activity ([6]; compound 1.0 µM): 94%; residual activity ([6]; compound 10.0 µM): 96%; residual activity ([7]; compound 1.0 µM): 102%; residual activity ([7]; compound 10.0 µM): 102%; residual activity ([8]; compound 1.0 µM): 101%; residual activity ([8]; compound 10.0 µM): 113%; residual activity ([9]; compound 1.0 µM): 94%; residual activity ([9]; compound 10.0 µM): 104%; residual activity ([10]; compound 1.0 µM): 96%; residual activity ([10]; compound 10.0 µM): 91%; residual activity ([11]; compound 1.0 µM): 107%; residual activity ([11]; compound 10.0 µM): 104%; residual activity ([12]; compound 1.0 µM): 81%; residual activity ([12]; compound 10.0 µM): 92%; residual activity ([13]; compound 1.0 µM): 85%; residual activity ([13]; compound 10.0 µM): 97%; residual activity ([14]; compound 1.0 µM): 99%; residual activity ([14]; compound 10.0 µM): 107%; residual activity ([15]; compound 1.0 µM): 100%; residual activity ([15]; compound 10.0 µM): 108%; residual activity [16]: 65%; residual activity ([17]; compound 1.0 µM): 93%; residual activity ([17]; compound 10.0 µM): 102%; residual activity ([18]; compound 1.0 µM): 91%; residual activity ([18]; compound 10.0 µM): 98%; residual activity ([19]; compound 1.0 µM): 69%; residual activity ([19]; compound 10.0 µM): 74%; residual activity [20]: 85%; residual activity ([21]; compound 1.0 µM): 112%; residual activity ([21]; compound 10.0 µM): 108%; residual activity ([22]; compound 1.0 µM): 83%; residual activity ([22]; compound 10.0 µM): 92%; residual activity [23]: 111%; residual activity ([24]; compound 1.0 µM): 95%; residual activity ([24]; compound 10.0 µM): 114%; residual activity ([25]; compound 1.0 µM): 87%; residual activity ([25]; compound 10.0 µM): 97%; residual activity ([26]; compound 1.0 µM): 90%; residual activity ([26]; compound 10.0 µM): 89%; residual activity ([27]; compound 1.0 µM): 103%; residual activity ([27]; compound 10.0 µM): 104%; residual activity ([28]; compound 1.0 µM): 88%; residual activity ([28]; compound 10.0 µM): 106%; residual activity ([29]; compound 1.0 µM): 97%; residual activity ([29]; compound 10.0 µM): 102%; residual activity ([30]; compound 1.0 µM): 91%; residual activity ([30]; compound 10.0 µM): 117%; residual activity ([31]; compound 1.0 µM): 64%; residual activity ([31]; compound 10.0 µM): 74%; residual activity ([32]; compound 1.0 µM): 103%; residual activity ([32]; compound 10.0 µM): 104%; residual activity ([33]; compound 1.0 µM): 104%; residual activity ([33]; compound 10.0 µM): 103%; residual activity ([34]; compound 1.0 µM): 89%; residual activity ([34]; compound 10.0 µM): 107%; residual activity ([35]; compound 1.0 µM): 110%; residual activity ([35]; compound 10.0 µM): 107%
